Earlier results, collected in US20110168623A1, “FEED SIDE PASSAGE MATERIAL AND SPIRAL SEPARATION MEMBRANE ELEMENT” (priority 2008, published 2011).

Oc1cc(Cl)ccc1Oc1ccc(Cl)cc1Cl [triclosan, 2,4,4′-trichloro-2′-hydroxy diphenyl ether]
antibacterial effect on Candida yeast (Candida yeast): small or comparatively small antibacterial effect | antibacterial effect on Pseudomonas aeruginosa (Pseudomonas aeruginosa): small or comparatively small antibacterial effect | antibacterial effect on Aspergillus niger (Aspergillus niger): small or comparatively small antibacterial effect
